Counter-ions that a name gives are not always drawn.

Chain of KRas G12C (P01116 1-188 isoform P01116-2 G12C): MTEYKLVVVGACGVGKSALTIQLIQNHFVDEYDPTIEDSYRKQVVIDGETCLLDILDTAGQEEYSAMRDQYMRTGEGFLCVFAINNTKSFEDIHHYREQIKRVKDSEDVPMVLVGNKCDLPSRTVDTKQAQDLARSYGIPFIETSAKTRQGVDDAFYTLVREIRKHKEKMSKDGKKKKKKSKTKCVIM

For the assay, the target named is KRas G12C (Homo sapiens, UniProt P01116, G12C). Briefly: Cellular inhibition of KRas G12C measured by Phospho-ERK in NCI-H358 cells. The class given is cell-based. The note with it: pERK(Thr202/Tyr204) normalized with GAPDH, NCI-H358 cells, 3 hours; read-out: IC50. An outline of the steps:
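NCI-H358 cells treated 3 h with compound (0.5% DMSO final), then fixed and methanol-permeabilised. In-cell immunofluorescence measured pERK(Thr202/Tyr204) normalised to GAPDH as percent of DMSO control. IC50 from a 4-parameter dose-response fit.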
As a reminder, the IC50 is the midpoint of a concentration-inhibition curve. In the case of `CN1CCC[C@H]1COc1nc2c(c(N3CCN(C(=O)/C=C/CN4CCCC4)[C@@H](CC#N)C3)n1)CCN(c1cccc(Cl)c1C(F)(F)F)C2` [Example 347, 2-[(2S)-4-[7-[3-chloro-2-(trifluoromethyl)phenyl]-2-[[(2S)-1-methylpyrrolidin-2-yl]methoxy]-6,8-dihydro-5H-pyrido[3,4-d]pyrimidin-4-yl]-1-[(E)-4-pyrrolidin-1-ylbut-2-enoyl]piperazin-2-yl]acetonitrile], the half-inhibitory concentration (IC50) lay in the range of 0.1 to 1000 nM.

As for `C=CC(=O)N1CC2(C1)CN(c1nc(OC(C)CN(C)C)nc3c1CCN(c1cc(O)cc4ccccc14)C3)C2` (stereo not drawn) [Example 18, 1-(6-(2-((1-(dimethylamino)propan-2-yl)oxy)-7-(3-hydroxynaphthalen-1-yl)-5,6,7,8-tetrahydropyrido[3,4-d]pyrimidin-4-yl)-2,6-diazaspiro[3.3]heptan-2-yl)prop-2-en-1-one], the half-maximal inhibitory concentration (IC50) was greater than 1000 nM.

As for `C=CC(=O)N1CCN(c2nc(OC[C@@H]3CCCN3C)nc3c2CCN(c2ccncc2C(F)(F)F)C3)CC1CC#N` (stereo partly drawn) [Example 239, 2-(1-acryloyl-4-(2-(((S)-1-methylpyrrolidin-2-yl)methoxy)-7-(3-(trifluoromethyl)pyridin-4-yl)-5,6,7,8-tetrahydropyrido[3,4-d]pyrimidin-4-yl)piperazin-2-yl)acetonitrile], the IC50 is greater than 1000 nM. `Cc1cccc2cccc(N3CCc4c(nc(OC[C@@H]5CCCN5C)nc4N4CCN(C(=O)C5=CC(=O)CC5)[C@@H](CC#N)C4)C3)c12` [Example 497, 2-((S)-4-(7-(8-methylnaphthalen-1-yl)-2-(((S)-1-methylpyrrolidin-2-yl)methoxy)-5,6,7,8-tetrahydropyrido[3,4-d]pyrimidin-4-yl)-1-(3-oxocyclopent-1-ene-1-carbonyl)piperazin-2-yl)acetonitrile]: the IC50 was 0.1 to 1000 nM. With `C=C(Cl)C(=O)N1CCN(c2nc(OC[C@@H]3CCCN3C)nc3c2CCN(c2cccc(C)c2C)C3)C[C@@H]1CC#N` [Example 473, 2-[(2S)-1-(2-chloroprop-2-enoyl)-4-[7-(2,3-dimethylphenyl)-2-[[(2S)-1-methylpyrrolidin-2-yl]methoxy]-6,8-dihydro-5H-pyrido[3,4-d]pyrimidin-4-yl]piperazin-2-yl]acetonitrile] the figure was 0.1 to 1000 nM. Turning to `C=CC(=O)N1CCN(c2nc(OCCCN3CCCCC3)nc3c2CCN(c2cc(O)cc4ccccc24)C3)CC1` [Example 38, 1-(4-(7-(3-hydroxynaphthalen-1-yl)-2-(3-(piperidin-1-yl)propoxy)-5,6,7,8-tetrahydropyrido[3,4-d]pyrimidin-4-yl)piperazin-1-yl)prop-2-en-1-one], the IC50 was in the range of 0.1 to 1000 nM. For `C=CC(=O)N1CCN(c2nc(OC[C@H]3CN(C)CCO3)nc3c2CCN(c2cccc4ccccc24)C3)CC1CC#N` (stereo partly drawn) [Example 443, 2-(1-Acryloyl-4-(2-(((R)-4-methylmorpholin-2-yl)methoxy)-7-(naphthalen-1-yl)-5,6,7,8-tetrahydropyrido[3,4-d]pyrimidin-4-yl)piperazin-2-yl)acetonitrile], the IC50 lay in the range of 0.1 to 1000 nM. Turning to `C=CC(=O)N1CCN(c2nc(O[C@H](C)CN(C)C)nc3c2CCN(c2cccc4ccccc24)C3)CC1` [Example 68, (R)-1-(4-(2-((1-(dimethylamino)propan-2-yl)oxy)-7-(naphthalen-1-yl)-5,6,7,8-tetrahydropyrido[3,4-d]pyrimidin-4-yl)piperazin-1-yl)prop-2-en-1-one], the 50% inhibitory concentration (IC50) was greater than 1000 nM.

With `C=CC(=O)N1CCN(c2nc(OC[C@H]3CCCN3C)nc3c2CCN(c2cc(O)cc4ccccc24)C3)[C@@H](C)C1` [Example 203, 1-((S)-4-(7-(3-hydroxynaphthalen-1-yl)-2-(((R)-1-methylpyrrolidin-2-yl)methoxy)-5,6,7,8-tetrahydropyrido[3,4-d]pyrimidin-4-yl)-3-methylpiperazin-1-yl)prop-2-en-1-one], the half-inhibitory concentration (IC50) was 0.1 to 1000 nM.

Turning to `C=C(F)C(=O)N1CCN(c2nc(OC[C@@H]3CCCN3C)nc3c2CCN(c2cncc4cc(F)ccc24)C3)C[C@@H]1CC#N` [Example 618, 2-[(2S)-4-[7-(7-fluoro-4-isoquinolyl)-2-[[(2S)-1-methylpyrrolidin-2-yl]methoxy]-6,8-dihydro-5H-pyrido[3,4-d]pyrimidin-4-yl]-1-(2-fluoroprop-2-enoyl)piperazin-2-yl]acetonitrile], the 50% inhibitory concentration (IC50) is greater than 1000 nM. Turning to `C=C(F)C(=O)N1CCN(c2nc(OC[C@@H]3CCCN3C)nc3c2CCN(c2c(C)c(C)cc4[nH]ncc24)C3)C[C@@H]1CC#N` [Example 604, 2-[(2S)-4-[7-(5,6-dimethyl-1H-indazol-4-yl)-2-[[(2S)-1-methylpyrrolidin-2-yl]methoxy]-6,8-dihydro-5H-pyrido[3,4-d]pyrimidin-4-yl]-1-(2-fluoroprop-2-enoyl)piperazin-2-yl]acetonitrile], the 50% inhibitory concentration (IC50) was 0.1 to 1000 nM. As to `C=CC(=O)N1CCN(c2nc(OC[C@@H]3C[C@H](F)CN3C)nc3c2CCN(c2cccc4ccccc24)C3)CC1CC#N` (stereo partly drawn) [Example 221, 2-(1-acryloyl-4-(2-(((2S,4S)-4-fluoro-1-methylpyrrolidin-2-yl)methoxy)-7-(naphthalen-1-yl)-5,6,7,8-tetrahydropyrido[3,4-d]pyrimidin-4-yl)piperazin-2-yl)acetonitrile], the half-inhibitory concentration (IC50) is 0.1 to 1000 nM. With `C=CC(=O)N1CCN(c2nc(OC[C@@H]3CCCN3C)nc3c2CCN(c2ccccc2C#N)C3)C[C@@H]1CC#N` [Example 325, 2-[4-[(3S)-3-(cyanomethyl)-4-prop-2-enoyl-piperazin-1-yl]-2-[[(2S)-1-methylpyrrolidin-2-yl]methoxy]-6,8-dihydro-5H-pyrido[3,4-d]pyrimidin-7-yl]benzonitrile] the figure was greater than 1000 nM; with `C=CC(=O)N1CCN(c2nc(OC[C@@H]3CCCN3C)nc3c2CCN(c2cccnc2C(F)(F)F)C3)CC1CC#N` (stereo partly drawn) [Example 226, 2-(1-acryloyl-4-(2-(((S)-1-methylpyrrolidin-2-yl)methoxy)-7-(2-(trifluoromethyl)pyridin-3-yl)-5,6,7,8-tetrahydropyrido[3,4-d]pyrimidin-4-yl)piperazin-2-yl)acetonitrile], 0.1 to 1000 nM; with `C=CC(=O)N1CCN(c2nc(OCCN(CC)CC)nc3c2CCN(c2cc(O)cc4ccccc24)C3)CC1` [Example 102], 0.1 to 1000 nM.

For the molecule `C=CC(=O)N1CCN(c2nc(O[C@H](C)CN3CC[C@H](O)C3)nc3c2CCN(c2cc(O)cc4ccccc24)C3)CC1` [Example 65, 1-(4-(7-(3-hydroxynaphthalen-1-yl)-2-(((R)-1-((S)-3-hydroxypyrrolidin-1-yl)propan-2-yl)oxy)-5,6,7,8-tetrahydropyrido[3,4-d]pyrimidin-4-yl)piperazin-1-yl)prop-2-en-1-one], the half-inhibitory concentration (IC50) was greater than 1000 nM. With `C=CC(=O)N1CCN(c2nc(OCCN3CCS(=O)(=O)CC3)nc3c2CCN(c2cc(O)cc4ccccc24)C3)CC1` [Example 33, 1-(4-(2-(2-(1,1-dioxidothiomorpholino)ethoxy)-7-(3-hydroxynaphthalen-1-yl)-5,6,7,8-tetrahydropyrido[3,4-d]pyrimidin-4-yl)piperazin-1-yl)prop-2-en-1-one trifluoroacetate] the figure was greater than 1000 nM; with `C=CC(=O)N1CCN(c2nc(OCCN(C)C)nc3c2CCN(c2ccccc2C(F)(F)F)C3)CC1CC#N` (stereo not drawn) [Example 279, 2-(1-acryloyl-4-(2-(2-(dimethylamino)ethoxy)-7-(2-(trifluoromethyl)phenyl)-5,6,7,8-tetrahydropyrido[3,4-d]pyrimidin-4-yl)piperazin-2-yl)acetonitrile], 0.1 to 1000 nM.

The record behind these values is US10689377B2 (Mirati Therapeutics, Inc., priority 2017, dated 2020).
